# Reference: PubChem BioAssay (NCI)
#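 How tested: cells in 96-well plates exposed to compound for 48 hours at five concentrations. The concentration for full growth arrest is given as TGI.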
# Experiments:
# Experiment in all cases: DTP human tumour cell line panel, 48 h
# 786-0 renal = tested on: 786-0 renal
# CCRF-CEM leukemia = tested on: CCRF-CEM leukemia
# COLO 205 colon = tested on: COLO 205 colon
# HCT-116 colon = tested on: HCT-116 colon
# HOP-62 NSCLC = tested on: HOP-62 NSCLC
# HOP-92 NSCLC = tested on: HOP-92 NSCLC
# HT29 colon = tested on: HT29 colon
# IGROV1 ovarian = tested on: IGROV1 ovarian
# LOX IMVI melanoma = tested on: LOX IMVI melanoma
# MDA-N = tested on: MDA-N
# MOLT-4 leukemia = tested on: MOLT-4 leukemia
# RPMI-8226 leukemia = tested on: RPMI-8226 leukemia
# RXF 393 renal = tested on: RXF 393 renal
# SK-OV-3 ovarian = tested on: SK-OV-3 ovarian
# SN12C renal = tested on: SN12C renal
# SNB-19 CNS = tested on: SNB-19 CNS
# SR leukemia = tested on: SR leukemia
# T-47D breast = tested on: T-47D breast
# U251 CNS = tested on: U251 CNS
# UACC-257 melanoma = tested on: UACC-257 melanoma
Structure (SMILES),TGI (786-0 renal) [µM],TGI (CCRF-CEM leukemia) [µM],TGI (COLO 205 colon) [µM],TGI (HCT-116 colon) [µM],TGI (HOP-62 NSCLC) [µM],TGI (HOP-92 NSCLC) [µM],TGI (HT29 colon) [µM],TGI (IGROV1 ovarian) [µM],TGI (LOX IMVI melanoma) [µM],TGI (MDA-N) [µM],TGI (MOLT-4 leukemia) [µM],TGI (RPMI-8226 leukemia) [µM],TGI (RXF 393 renal) [µM],TGI (SK-OV-3 ovarian) [µM],TGI (SN12C renal) [µM],TGI (SNB-19 CNS) [µM],TGI (SR leukemia) [µM],TGI (T-47D breast) [µM],TGI (U251 CNS) [µM],TGI (UACC-257 melanoma) [µM]
NC(N)=Nc1ccc(-c2ccc(N=C(N)N)cc2)cc1,> 100,> 95.7,47,> 100,> 100,> 100,> 100,> 89.6,> 100,> 100,> 100,66.3,> 100,> 100,> 100,> 100,> 100,> 100,> 100,> 100
CN(C)CCCN1c2ccc([N+](=O)[O-])cc2CCc2cccc([N+](=O)[O-])c21,26.5,46.4,28.6,27.3,27,26.8,32.5,29.7,31.8,29.2,51.5,98.7,22.8,30.8,28.6,36.1,> 100,37.2,29.3,27.6
Cn1c2ccc([N+](=O)[O-])cc2c(=O)n1Cc1ccccc1F,> 100,> 100,> 100,> 100,> 100,91.6,> 100,> 100,> 100,> 100,> 100,> 100,> 100,> 100,> 100,> 100,> 100,> 100,> 100,> 100
COC(=O)NC(Nc1ccccn1)(C(F)(F)F)C(F)(F)F,> 100,> 100,–,> 100,> 100,> 100,> 100,> 100,> 100,> 100,> 100,> 100,> 100,> 100,–,> 100,> 100,> 100,> 100,> 100
CCN(CC)c1ccc2cc(C(N)=O)c(=N)oc2c1,> 100,> 100,> 100,> 100,> 100,> 100,> 100,80.7,> 100,> 100,> 100,> 100,> 100,> 100,> 100,> 100,> 100,83.9,> 100,> 100
C=Cc1nc2c(Cl)ncnc2n1Cc1ccccc1,4.49,> 100,3.08,4.72,20.1,4.66,7.28,10.9,8.44,13.6,> 28.4,18.3,7.84,31,17.5,31.5,> 33.4,6.75,22.6,8.6
O=C(OCc1ccccc1)N(CCCCN(CCCNC(=O)C(F)(F)F)C(=O)OCc1ccccc1)CCCNC(=O)C(F)(F)F,> 100,> 100,> 100,> 100,> 100,> 100,> 100,> 100,> 100,> 100,> 100,> 100,> 100,> 100,> 100,> 100,> 100,> 100,> 100,> 100
COc1cccc2c1C(=O)C1=C(C2=O)C(O)CC(C)(C)O1 (stereo not given),> 100,66.9,54,63,> 100,> 100,> 100,> 100,57.3,36,82.6,60.4,> 100,> 100,> 100,> 100,46.3,> 100,> 100,50
CN1CCc2cc3c(c4c2C1C(O)c1ccccc1-4)OCO3 (stereo not given),62.2,9.69,> 100,> 100,18.6,7.22,18.3,26,25.1,16.1,37.6,32.6,10.8,> 100,11.1,> 100,28.8,> 100,25.6,26.3
COc1ccccc1CCN1CCN(CCCc2ccccc2)CC1,> 100,> 100,76,> 100,> 100,23.2,> 100,> 100,> 100,> 100,> 100,> 100,> 100,> 100,> 100,> 100,> 100,> 100,> 100,> 100
CN1Cc2ccccc2S(=O)(=O)n2cccc2C1=O,> 100,> 100,> 100,> 100,> 100,> 100,–,> 100,> 100,> 100,> 100,> 100,> 100,> 100,> 100,–,> 100,> 100,> 100,> 100
C=C1C[C@@H]2CC[C@@]34CC5O[C@H]6C(O[C@H]7CC[C@H](CC(=O)O[C@@H]8[C@@H](C)[C@@H]9O[C@@H]%10C[C@]%11(C[C@@H]%12O[C@]%13(C[C@H](C)[C@@H]%14O[C@@H]%15CC(C(O)CO)O[C@@H]%15C[C@@H]%14O%13)C[C@H](C)[C@@H]%12O%11)O[C@@H]%10C[C@@H]9O[C@H]8CC8O[C@@H](CC[C@@H]1O2)C[C@@H](C)C8(O)CO)O[C@@H]7[C@@H]6O3)[C@H]5O4 (stereo not given in full),> 1,> 1,> 1,> 1,> 1,> 1,–,> 1,> 1,> 1,> 1,> 1,> 1,> 1,> 1,> 1,> 1,> 1,> 1,> 1
CS(=O)(=O)OCCCCOS(=O)(=O)CF,> 100,> 100,> 100,> 100,> 100,> 92.4,> 100,> 100,> 100,> 100,> 100,> 100,> 100,> 100,> 100,> 100,> 100,> 100,> 100,> 100
Cn1c(=O)c2c3ccccc3n(C)c2n(C)c1=O,> 100,> 100,> 100,> 100,> 100,> 100,> 100,> 100,> 100,> 100,> 100,> 100,> 100,83.9,> 100,> 100,> 100,> 100,> 100,> 100
C1=CC2C=CC(C=C1)P2c1ccccc1 (stereo not given),> 100,> 100,> 100,> 100,> 100,> 100,> 100,> 100,> 100,> 100,> 100,> 100,> 100,> 100,> 100,> 100,> 100,> 100,> 100,> 100
O=C1C=Cc2c(Br)sc(Br)c21,> 100,11.3,> 100,77.1,84.8,60,85.9,43.5,48.4,> 100,36.8,46.3,46,> 100,> 100,> 100,75.2,81.8,38.2,> 100
O=C1OCN(c2ccccc2)C12CCN(Cc1ccccc1)CC2,79.2,48.7,39.6,> 100,> 100,> 100,31.9,> 100,30.4,62.3,36.6,89,33.2,> 100,> 100,> 100,> 100,63.8,31.5,31
Cc1ccc(S(=O)(=O)NC(=O)NC(CC(N)=O)C(=O)O)cc1 (stereo not given),> 100,> 100,> 100,> 100,> 100,> 100,> 100,> 100,> 100,> 100,> 100,> 100,> 100,> 100,> 100,> 100,> 100,> 100,> 100,> 100
